Measurements as given in patent US9119769B2, “Method for transforming pharmaceutical crystal forms” (The Curators of the University of Missouri, priority 2012, dated 2015).
Each block holds one compound with its values, some of them ahead of it.

Experiments:
[1] = cited from earlier work
[2] = Gas-induced (pressurized CO2) phase transformation of crystal forms, followed by XRPD; type: physicochemical
Source text: The invention teaches that simple pressurization of polymorphic forms of an organic solid, such as a pharmaceutical agent, can effect phase transitions among the forms with ease. More specifically, the inventive method comprises the step of subjecting an organic solid to a pressurized gas under low to moderate pressure at room temperature to a mildly elevated temperature for a period of time. The pressurized gas may be CO2, N2O, and CH4, and the pressure may start at 1 atm, whereas under slightly elevated pressure, the reaction temperature may be lowered, while the reaction time may be shortened.
Refer to FIG. 3, which includes schematic illustrations of the phase transformations between different forms of Clarithromycin 1. […] As expected, desolvated form I can be transformed to form II with greater ease under analogous conditions. […] Different gases including H2, He, CH4, N2, O2, air, and N2O have been studied, among which N2O has similar transformation effect as CO2.
Refer to FIG. 5, which compares the transformations under different gas pressures (350 psi vs. 100 psi) at different durations.
The invention has also studied Lansoprazole 2 transformations under CO2 but at higher pressure conditions.

[3] = 1:1 ethanol hydrate; cited from earlier work

Structure (SMILES): CO[C@@H]1[C@@H](OC(N)=O)[C@@H](O)[C@H](Oc2ccc3c(O)c(NC(=O)c4ccc(O)c(CC=C(C)C)c4)c(=O)oc3c2C)OC1(C)C [novobiocin amorphous phase, novobiocin]
absorption upon oral administration [1]: readily absorbed

Structure (SMILES): Cc1c(OCC(F)(F)F)ccnc1C[S+]([O-])c1nc2ccccc2[nH]1 (stereo not drawn) [Lansoprazole ethanol hydrate, Lansoprazole]
transformation of ethanol hydrate to solvent-free form ([2]; 500 psi CO2, room temperature): transformation to the more thermodynamically stable solvent-free form begins
chemical stability of the solvate [3]: prone to decomposition

time for transformation to form II ([2]; pressurization under 350 psi CO2): within just several minutes
Structure (SMILES): CC[C@H]1OC(=O)[C@H](C)[C@@H](O[C@H]2C[C@@](C)(OC)[C@@H](O)[C@H](C)O2)[C@H](C)[C@@H](O[C@@H]2O[C@H](C)C[C@H](N(C)C)[C@H]2O)[C@](C)(OC)C[C@@H](C)C(=O)[C@H](C)[C@@H](O)[C@]1(C)O [Clarithromycin form I, 6-O-methylerythro-mycin A]

Structure (SMILES): CO[C@@H]1[C@@H](OC(N)=O)[C@@H](O)[C@H](Oc2ccc3c(O)c(NC(=O)c4ccc(O)c(CC=C(C)C)c4)c(=O)oc3c2C)OC1(C)C [novobiocin crystalline form, novobiocin]
absorption upon oral administration [1]: poorly absorbed

time of exposure for complete transformation directly to form II ([2]; 23.8 atm (350 psi) CO2, room temperature): 4 h
Structure (SMILES): CC[C@H]1OC(=O)[C@H](C)[C@@H](O[C@H]2C[C@@](C)(OC)[C@@H](O)[C@H](C)O2)[C@H](C)[C@@H](O[C@@H]2O[C@H](C)C[C@H](N(C)C)[C@H]2O)[C@](C)(OC)C[C@@H](C)C(=O)[C@H](C)[C@@H](O)[C@]1(C)O [Clarithromycin form 0, 6-O-methylerythro-mycin A]
